Source: ChEMBL document CHEMBL1147264, “Tricholomalides A-C, new neurotrophic diterpenes from the mushroom Tricholoma sp” (J Nat Prod, 2003)
The source made the active and inactive calls. The calls are words filed in the database; no cut-off is given here.

How the values were obtained:
[1] = Inhibition of Na(+)/K(+) ATPase
PC-12 [2] = test: Induction of neurite outgrowth in rat PC12 cells at 100 uM after 2 days by phase-contrast microscopy; assay type: functional, cell-based
HeLa = test: Cytotoxicity against human HeLa cells at 50 ug/mL after 3 days by MTT assay; assay type: functional, cell-based
PC-12 [3] = test: Induction of neurite outgrowth in rat PC12 cells; assay type: functional, cell-based

Activity [1]	Structure (SMILES)	Activity (PC-12 [2])	Activity (HeLa)	Activity (PC-12 [3])
Active	O=C(O)/C(=C1/OCO/C1=C(/C(=O)O)c1ccccc1)c1ccccc1	–	–	–
–	C=C(CO)[C@]12C=C3C(=O)C[C@@H](C(C)C)[C@]3(C)C[C@@H](O)[C@@]1(C)CC(=O)O2	Active	inactive	–
–	C=C1CO[C@H]2[C@@H]3C(=O)C[C@@H](C(C)C)[C@]3(C)C[C@H]3OC(=O)C[C@@]3(C)[C@@]12O	Active	inactive	–
–	CC(C)C1=C2[C@H]3CC=C(C=O)CC(=O)[C@]3(C)CC[C@@]2(C(=O)O)CC1	–	–	inactive
–	CO[C@H]1[C@H]2[C@@H](O)O[C@@H]1[C@]1(C)CC[C@@]3(C(=O)O)CCC(C(C)C)=C3[C@H]1C[C@H]2OC	–	–	inactive
–	C=C(CO)[C@@]1(O)C=C2C(=O)C[C@@H](C(C)C)[C@]2(C)C[C@H]2OC(=O)C[C@]21C	Active	inactive	–
